Results as given in patent US20170042878A1 (THE GENERAL HOSPITAL CORPORATION, priority 2012, published 2017).
Entries after “also recorded” stand apart in the source; their conditions may differ. Read-outs that look alike come from different tables or passages of the source.

What was measured:
mice [1] = conditions: scopolamine single administration 0.1 or 0.2 mg/kg i.p.; P<0.01 or P<0.001; cited from earlier work
mTOR signaling = conditions: cited from earlier work
mice [2] = conditions: cited from earlier work
rabbit = conditions: drugs injected immediately after completion of daily training sessions; cited from earlier work
C57BL/6N mice [3] = assay: Home cage observation of motor activation after administration, prior to FST; conditions: scopolamine 0.5 and 1.0 mg/kg i.p.
Method: (§1) Male 10 week C57BL/6N mice (Taconic) acclimated to a holding facility one week prior to testing. A two-day FST paradigm was employed, in which mice were exposed to a 10 minute test in absence of drug, and tested the following day in presence of drug in a 6 minute test. […] All animals were drug naïve and not previously exposed to behavioral testing.
A dose at the low end of this range was selected (3 mg/kg i.p.) and administered to adult male C57BL/6N mice 30 min prior to the FST.

rats [4] = conditions: rat, in vivo; cited from earlier work
C57BL/6N mice [5] = assay: Two-day forced swim test (FST) in mice; assay type: in vivo, mouse
Method: as §1
Male C57BL6N/Tac mice were purchased from Taconic Farms (Germantown, N.Y.) at 10 weeks of age. Mice were housed four mice per cage upon arrival under a 12:12 h light/dark cycle and were allowed to acclimate for approximately one week prior to behavioral procedures. Food and water were provided ad libitum. All procedures followed the National Institutes of Health Guide for the Care and Use of Laboratory Animals, and were approved by the Massachusetts Institute of Technology Animal Care and Use Committee.
Mice were tested in a two day forced swim test (FST) procedure. On day 1, all mice received mock intraperitoneal vehicle (i.p.) injections to acclimate to the injection procedure and, 30 minutes later, were placed into one of five identical cylindrical chambers (24 cm×15 cm) filled approximately halfway with warm water (26)±2° for 10 minutes with no data collected. On day 2, mice received i.p. injections 30 minutes prior to being placed in a cylinder for a 6 minute session and immobility time was scored automatically (EthoVisionXT; Noldus Information Technology; Wageningen, Netherlands) during the final 4 minutes.
For all FST behavioral experiments, the time spent immobile was the dependent variable, and data were analyzed by one-way analysis of variance (ANOVA) and Tukey post-hoc comparisons using SPSS v. 18 (IBM).

[6] = in vivo; cited from earlier work
rats [7] = conditions: cited from earlier work
NMDA receptor 2A = conditions: rat, in vivo; cited from earlier work
NMDA receptor 1A = conditions: rat, in vivo; cited from earlier work
depressed patients = conditions: cited from earlier work
[8] = ketamine injection 1 mg/kg; cited from earlier work
BDNF = conditions: ketamine sub-anesthetic doses; correlated with antidepressant effect; cited from earlier work
mTOR pathway = conditions: ketamine 5 and 10 mg/kg i.p., cited from earlier work

Question: Which “immobility times in the tail suspension test versus vehicle” value (mice [1]) does the source give for CN1[C@@H]2C[C@@H](OC(=O)[C@H](CO)c3ccccc3)C[C@H]1[C@@H]1O[C@@H]12 [scopolamine] here?
Answer: Its value is “decreased immobility times”.

Question: And the mTOR signaling (mTOR signaling)?
Answer: Its mTOR signaling is “rapidly activate mTOR signaling”.

Question: And the “immobility times in the forced swim test versus vehicle” value (mice [2]; scopolamine single administration 0.1 or 0.2 mg/kg i.p., both P<0.001)?
Answer: Its value is “decreased immobility times”.

Question: And the “effect on conditioning of the nictitating membrane response” value (rabbit)?
Answer: The value was “retards”.

Question: And the “motor activation in the home cage after administration” value (C57BL/6N mice [3])?
Answer: Its value is “noticeably hyperactive; also recorded: visibly hyperactive”.

Question: What about the adult neurogenesis (rats [4]) of the same molecule?
Answer: The adult neurogenesis was “suppress adult neurogenesis”.

Question: What about the “effect on FST immobility time versus vehicle” value (C57BL/6N mice [5]; scopolamine 0.1 mg/kg i.p., p>0.05, FIG. 2) of the same molecule?
Answer: Its value is “no change in immobility time versus vehicle; also recorded: did not significantly reduce immobility time”.

Question: What about the “effect on FST immobility time versus vehicle” value (C57BL/6N mice [5]; scopolamine 0.5 mg/kg and 1.0 mg/kg i.p., p<0.05, likely due to non-specific motor activation, FIG. 2) of the same molecule?
Answer: Its value is “substantially reduced immobility time”.

Question: What about the “incremental acquisition aspect of task performance” value [6] of the same molecule?
Answer: The value was “dose x difficulty related impairment”.

Question: And the “recognition memory aspect of task performance” value [6]?
Answer: The value was “dose x difficulty related impairment”.

Question: What about the “effect on antidepressant effects of desipramine and nomifensine in the forced swim test” value (rats [7]; scopolamine 0.5-1.0 mg/kg i.p., desipramine 20 or 30 mg/kg i.p., nomifensine 2.5 or 5 mg/kg i.p. (Mancinelli et al., 1988)) of the same molecule?
Answer: The value was “potentiated the antidepressant effects”.

Question: What about the “expression of NMDA receptor 2A” value (NMDA receptor 2A) of the same molecule?
Answer: The value was “decrease expression”.

Question: What about the “expression of NMDA receptor 1A” value (NMDA receptor 1A) of the same molecule?
Answer: Its value is “decrease expression”.

Question: And the “time after which patients report improvement” value (depressed patients; scopolamine 0.004 mg/kg infusion (Furey and Drevets, 2006))?
Answer: Its value is “approximately 24 hours”.

Question: And the “clinical outcome in depressed patients” value (depressed patients; scopolamine 0.004 mg/kg infusion, assessed 3 days after treatment)?
Answer: Its value is “clinical improvement”.

Question: What about the “effect on ketamine-induced cerebral vasodilatation” value [8] of the same molecule?
Answer: Its value is “blocked”.

Question: Which “antidepressant effect in the FST” value (mice [2]; ketamine 3 mg/kg i.p., within 30 minutes, mouse models of depression (Autry et al., 2011)) does the source give for CNC1(c2ccccc2Cl)CCCCC1=O (stereo not shown) [ketamine] here?
Answer: Its value is “exhibited an antidepressant effect”.

Question: And the “effect on conditioning of the nictitating membrane response” value (rabbit)?
Answer: Its value is “accelerates”.

Question: And the “levels of BDNF in the hippocampus” value (BDNF)?
Answer: The value was “increased levels of BDNF”.

Question: And the “reduction in immobility versus vehicle” value (C57BL/6N mice [5]; ketamine 3 mg/kg i.p. 30 min prior to FST, modest and non-significant, FIG. 1)?
Answer: The value was 18%.

Question: And the “effect on FST immobility time versus vehicle” value (C57BL/6N mice [5]; ketamine 3 mg/kg i.p. 30 minutes prior to testing, p>0.05, FIG. 1)?
Answer: Its value is “modest non-significant antidepressant effect; also recorded: did not significantly reduce immobility time”.

Question: And the “recognition memory aspect of task performance” value [6]?
Answer: Its value is “dose-dependent impairment”.

Question: And the “mature dendritic spines of medial PFC pyramidal neurons and serotonin-mediated cortical neurotransmission” value (mTOR pathway; at 24 hours)?
Answer: Its value is “concomitant increases”.

Question: And the “levels of pre- and postsynaptic proteins” value (mTOR pathway; two hours after treatment)?
Answer: Its value is “increased levels”.

Question: What about the “phosphorylation and activation of mTOR pathway molecules in synaptoneurosomes from prefrontal cortex” value (mTOR pathway; within one hour of treatment) of the same molecule?
Answer: Its value is “increase phosphorylation and activate several molecules in the mTOR pathway”.

Question: And the “forced swim test immobility time versus vehicle” value (rats [7]; ketamine 10 or 15 mg/kg i.p. (Garcia et al., 2008))?
Answer: The value was “reduced forced swim test immobility time”.

Question: And the “forced swim test effect” value (rats [7]; ketamine anesthetic dose 80 mg/kg i.p., immediately after treatment (Li et al., 2010))?
Answer: Its value is “no effect”.

Question: What about the “forced swim test immobility time versus vehicle” value (rats [7]; ketamine anesthetic dose 160 mg/kg i.p., tested 3, 7, or 10 days after treatment (Yilmaz et al., 2002)) of the same molecule?
Answer: Its value is “significantly decreased”.

Question: And the “persistence of improvement in depression ratings” value (depressed patients; ketamine single intravenous infusion 0.5 mg/kg (Zarate et al., 2006))?
Answer: Its value is “approximately 1 week”.

Question: What about the “time to significant improvement in depression ratings after administration” value (depressed patients; ketamine single intravenous infusion 0.5 mg/kg) of the same molecule?
Answer: The value was 1 to 2 h.

Question: And the cerebral vasodilatation [8]?
Answer: Its cerebral vasodilatation is “significant cerebral vasodilatation”.
